# In paper PMC5428333, “Novel protein acetyltransferase, Rv2170, modulates carbon and energy metabolism in Mycobacterium tuberculosis” (Scientific Reports, 2017):
# Key:
# Rv2170 [1] = biological target: T1, Rv2170 (Mycobacterium tuberculosis, UniProt O53504)
# Rv2170 [2] = biological target: T1, Rv2170; remark: listed apart in the source
# T1 sequence (O53504 whole entry): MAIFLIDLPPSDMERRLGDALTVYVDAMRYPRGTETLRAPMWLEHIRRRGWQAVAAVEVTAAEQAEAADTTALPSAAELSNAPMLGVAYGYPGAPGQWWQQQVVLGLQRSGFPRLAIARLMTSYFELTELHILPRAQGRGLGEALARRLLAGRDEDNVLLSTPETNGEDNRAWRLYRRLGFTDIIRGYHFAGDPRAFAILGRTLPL
Compound,DTNB assay of free CoA at 412 nm; also 14C transfer to ICDH1 by SDS-PAGE and pho (Rv2170 [1]),"14C transfer to ICDH1, SDS-PAGE and phosphorimaging (Rv2170 [2])"
CC(=O)SCCNC(=O)CCNC(=O)[C@H](O)C(C)(C)COP(=O)(O)OP(=O)(O)OC[C@H]1O[C@@H](n2cnc3c(N)ncnc32)[C@H](O)[C@@H]1OP(=O)(O)O [acetyl-CoA],sigmoidal response in kinetic analysis of Rv2170 when the concentration of acetyl-CoA was increased,
CCC(=O)SCCNC(=O)CCNC(=O)[C@H](O)C(C)(C)COP(=O)(O)OP(=O)(O)OC[C@H]1O[C@@H](n2cnc3c(N)ncnc32)[C@H](O)[C@@H]1OP(=O)(O)O [propionyl-CoA],,Rv2170 is also capable of modifying ICDH1 with the succinyl-CoA and propionyl-CoA donors
